Laboratory results taken from patent US20090221576A1, “Pharmaceutical Use of 2-Hydroxy-3-[5-(Morpholin-4-Ylmethyl) Pyridin-2-YL]-1H-IN-Dole-5-Carbonitrile as a Free Base or Salts” (ASTRAZENECA AB GLOBAL INTELLECTUAL PROPERTY, priority 2006, published 2009).

System: Han Wistar rats
Experiment: Increased bone formation in rats, four-week oral gavage study, light microscopy of femur, femorotibial joint and sternum
Type: in vivo, rat
Experimental: Male and female Han Wistar rats were dosed by oral gavage, at dosages of 15, 55 or 100 μmol/kg/day for four weeks and compared to vehicle controls. Complete necropsies were performed and the tissues preserved in 10% formalin. The femur, femorotibial joint and sternum were decalcified, embedded in paraffin, sectioned at 5 μm thickness and stained with hematoxylin and eosin.

[1] = rat, 100 μmol/kg for 4 weeks, vs vehicle-treated control rat (FIG. 1a)

SMILES | formation of osteoid in the femur (epiphysis), FIG. 1b [1] | number of osteoblasts in the femur (epiphysis), FIG. 1b [1] | bone formation as evaluated by light microscopy (male and female Han Wistar rats, oral gavage, 100 μmol/kg dose level, four weeks, vs vehicle controls, femur, femorotibial joint, sternum, H&E)
N#Cc1ccc2[nH]c(O)c(-c3ccc(CN4CCOCC4)cn3)c2c1 [compound (I), 2-hydroxy-3-[5-(morpholin-4-ylmethyl)pyridin-2-yl]1H-indole-5-carbonitrile] | marked increase in formation of osteoid | increased number of osteoblasts | –
N#Cc1ccc2[nH]c(O)c(-c3ccc(CN4CCOCC4)cn3)c2c1.O=C(O)CC(O)(CC(=O)O)C(=O)O [Example 1, 2-Hydroxy-3-[5-(morpholin-4-ylmethyl)pyridin-2-yl]1H-indole-5-carbonitrile citrate salt] | – | – | increased bone formation in the form of thickened trabeculae, thickened cortical bone, periosteal hyperostosis and increased number of osteoblasts
